Data: ChEMBL document CHEMBL5053501, “1,4,9-Triazaspiro[5.5]undecan-2-one Derivatives as Potent and Selective METTL3 Inhibitors” (J Med Chem, 2021)
Values after ≈ are worked out from the molar mass of the structure shown. Active and inactive are the calls of the source. The calls are words filed in the database; no cut-off is given here.

Key:
[1] = molecular target: N6-adenosine-methyltransferase catalytic subunit (Homo sapiens, UniProt Q86U44); assay: Inhibition of recombinant […] (unknown origin) expressed in baculovirus infected Sf9 cells assessed as decrease in N6-methyladenosine level in oligonucleotide substrate by TR-FRET assay
[2] = species on record: Homo sapiens; assay: Binding affinity to human METTL1 assessed as change in melting temperature at 1000 uM by thermal shift assay
[3] = species on record: Homo sapiens; assay: Binding affinity to human METTL16 assessed as change in melting temperature at 1000 uM by thermal shift assay
[4] = molecular target: T1, METTL3/METTL14 (Homo sapiens) (UniProt Q86U44+Q9HCE5); settings: dose 1000.0 µM
[5] = Kinetic solubility of the compound in PBS at pH 7.4 at 100 uM incubated for 1 hr by LCMS/MS analysis; type: physicochemical; settings: read-out: Kinetic_solubility
[6] = Metabolic stability in rat liver microsomes assessed as half life by LC-MS analysis; type: ADME, Microsome
[7] = system: MOLM-13; assay: Reduction in m6A levels in total RNA fraction in human MOLM-13 cells at 10 uM measured after 6 days by UPLC-MS/MS analysis; type: functional, cell-based; settings: time 6.0 day
[8] = system: PC-3; assay: Effect on METTL3 expression in human PC-3 cells at 10 uM incubated for 16 hrs by Western blotting analysis; type: functional, cell-based
[9] = system: MOLM-13; assay: Growth inhibition of human MOLM-13 cells assessed as cell viability measured after 3 days; type: functional; settings: MOLM-13, 72 h, time 3 day
[10] = molecular target: T1, METTL3/METTL14 (Homo sapiens); settings: dose 100.0 µM
[11] = system: MOLM-13; assay: Reduction in m6A levels in mRNA fraction in human MOLM-13 cells at 10 uM measured after 6 days by UPLC-MS/MS analysis; type: functional, cell-based; settings: time 6.0 day
[12] = Reduction in m6A/A ratio in poly-adenylated RNA fraction of human MOLM-13 cells measured after 16 hrs by UPLC-MS/MS analysis; type: functional, cell-based
[13] = system: MOLM-13; assay: Reduction in m6Am levels in total RNA fraction in human MOLM-13 cells at 10 uM measured after 6 days by UPLC-MS/MS analysis; type: functional, cell-based; settings: time 6.0 day
[14] = species on record: Homo sapiens; assay: Binding affinity to human METTL16 assessed as change in melting temperature at 100 uM by thermal shift assay
[15] = system: MOLM-13; assay: Reduction in m7G levels in mRNA fraction in human MOLM-13 cells at 10 uM measured after 6 days by UPLC-MS/MS analysis; type: functional, cell-based; settings: time 6.0 day
[16] = system: MOLM-13; assay: Effect on METTL3 expression in human MOLM-13 cells at 10 uM incubated for 16 hrs by Western blotting analysis; type: functional, cell-based
[17] = species on record: Homo sapiens; assay: Binding affinity to human METTL1 assessed as change in melting temperature at 100 uM by thermal shift assay
[18] = system: MOLM-13; assay: Reduction in m1A levels in mRNA fraction in human MOLM-13 cells at 10 uM measured after 6 days by UPLC-MS/MS analysis; type: functional, cell-based; settings: time 6.0 day
[19] = system: PC-3; assay: Growth inhibition of human PC-3 cells assessed as cell viability measured after 3 days; type: functional; settings: PC-3, 72 h, time 3 day

Chain of N6-adenosine-methyltransferase catalytic subunit (Q86U44 whole entry): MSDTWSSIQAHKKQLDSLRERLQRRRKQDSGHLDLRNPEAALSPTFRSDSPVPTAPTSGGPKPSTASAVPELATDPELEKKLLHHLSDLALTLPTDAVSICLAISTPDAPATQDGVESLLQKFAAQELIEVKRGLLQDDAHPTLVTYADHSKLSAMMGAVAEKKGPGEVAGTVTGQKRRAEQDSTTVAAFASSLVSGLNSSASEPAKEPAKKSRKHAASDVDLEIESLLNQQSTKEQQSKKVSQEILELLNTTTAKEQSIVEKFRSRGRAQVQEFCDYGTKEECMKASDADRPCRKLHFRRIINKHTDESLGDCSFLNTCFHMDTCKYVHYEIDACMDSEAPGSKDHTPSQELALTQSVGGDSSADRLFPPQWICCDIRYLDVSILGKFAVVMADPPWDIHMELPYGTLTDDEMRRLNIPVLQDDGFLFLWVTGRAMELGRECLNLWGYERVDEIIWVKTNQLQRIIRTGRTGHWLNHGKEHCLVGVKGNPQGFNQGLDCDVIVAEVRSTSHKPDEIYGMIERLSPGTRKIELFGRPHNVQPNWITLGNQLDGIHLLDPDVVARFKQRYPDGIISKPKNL

## Nc1ncnc2c1ncn2[C@@H]1O[C@H](CSCC[C@H](N)C(=O)O)[C@@H](O)[C@H]1O [S-ADENOSYLHOMOCYSTEINE]
[1]
  IC50: 0.59 µM
[2]
  ΔTm: 6.3 °C
[3]
  ΔTm: 0.8 °C
[4]
  ΔTm: 3.7 °C

## CNc1cc(N2CC3(CN(c4ccc(CN5CCC(C)(C)CC5)cc4)CC(=O)N3)C2)ncn1
[5]
  solubility kinetic at 1 h, 100 µM: 86 µM (≈ 38.7 µg/mL)
[6]
  half-life: 70 min

## CNc1cc(N2CCCC(O)(CNC(=O)c3ccc(CN4CCC(C)(C)CC4)cc3)C2)ncn1 (configuration not stated)
[1]
  IC50: 7 µM

## CNc1cc(N2CCC3(CC2)CN(c2cc(F)c(CN4CCC(C)(C)CC4)cc2F)CC(=O)N3)ncn1
[7]
  Activity: Active
[8]
  Activity: Active
[9]
  GI50: 12 µM
[10]
  ΔTm: 4.7 °C
[11]
  Activity: Active
[12]
  EC50: 0.7 µM
[13]
  Activity: Active
[14]
  deltaTm: inactive
[15]
  Activity: inactive
[16]
  Activity: Active
[17]
  deltaTm: inactive
[18]
  Activity: inactive
[19]
  GI50: 70 µM

## CC1(C)CCN(Cc2ccc(N3CC(=O)NC4(CCN(c5nc(Cl)nc6[nH]ccc56)CC4)C3)cc2)CC1
[5]
  solubility kinetic at 1 h, 100 µM: 45 µM (≈ 23.5 µg/mL)
[6]
  half-life: 32 min
